Measurements as given in PubChem BioAssay AID489040 (Sanford-Burnham Center for Chemical Genomics, 2010).
Activity calls are given as the source filed them.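 How the source made its calls: active means mean half-maximal activating concentration from the dose-response fit at or below a set limit; inactive means the rest.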

These compounds were tested against CHO-XBP1 luciferase reporter, IRE1-XBP1 UPR activation (assay: XBP1 luciferase reporter activation – CHO-XBP1 cells, luminescence, counter-screen for apoptotic UPR arm activators, dose response (AID 489040);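 further: reporter read after six hours of compound exposure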).

SMILES	EC50
O=C(CSC(=S)N1CCCC1)c1cc(Br)cc(Br)c1O	> 80 µM (inactive)
O=S(=O)(c1ccc(Cl)cc1)c1snnc1-c1ccccc1	> 80 µM (inactive)
Cc1cc(NC(=O)c2cc(-c3ccccn3)nc3ccc(Br)cc23)no1	> 80 µM (inactive)
Cc1ccc(S(=O)(=O)N(C(=O)c2ccncc2)c2ccc(OC(=O)c3ccncc3)c3ccccc23)c(C)c1	> 80 µM (inactive)
COc1ccc(N=Nc2ccc(O)c3ncccc23)cc1	inactive
O=[N+]([O-])c1cc(-c2ncccn2)c([N+](=O)[O-])s1	> 80 µM (inactive)
COC(=O)[C@@H]1[C@@H](C#N)C2(c3ccccc3-c3ccccc32)N(c2ccc(Cl)cc2)N1C#N	> 80 µM (inactive)
Cc1cccc(OCCN2CSC(=S)N(C)C2)c1	> 80 µM (inactive)
O=C(/C=C/c1ccc([N+](=O)[O-])cc1)/C=C/c1ccco1	> 80 µM (inactive)
O=C(Oc1oc(-c2ccco2)nc1C=Nc1ccc(Cl)cc1)c1ccco1	> 80 µM (inactive)
CCOC(=O)C1CCN(Cc2ccc(O)c3ncccc23)CC1	> 80 µM (inactive)
CCCn1c(CC)nc([N+](=O)[O-])c1S(=O)(=O)c1ccccc1	> 80 µM (inactive)
COc1ccc2c(C(=O)CCl)c[nH]c2c1	> 80 µM (inactive)
O=[N+]([O-])c1ccc2nc(Cl)nc(-c3ccccc3)c2c1	> 80 µM (inactive)
O=[N+]([O-])c1ccc(Sc2nnnn2-c2ccccc2)nc1	> 80 µM (inactive)
Cc1ccc(Cc2cnc(NC(=O)/C(C#N)=C/c3ccc(-c4cccc([N+](=O)[O-])c4)o3)s2)cc1	9.32 µM
COc1cccc(-n2c(SCC(=O)N3CCc4ccccc43)nnc2-c2c[nH]c3ccccc23)c1	inactive
Cc1ccc(C)c(C(=O)Cn2ncc(Cl)c(Cl)c2=O)c1	> 80 µM (inactive)
O=C(Nc1nc(-c2ccccn2)cs1)c1cc(Cl)ccc1[N+](=O)[O-]	> 80 µM (inactive)
COc1cc(SC#N)ccc1N=Cc1c(C)[nH]n(-c2ccc(Cl)cc2)c1=O	15.9 µM
CC(C)(C)N1CSC(=S)N(Cc2ccccc2)C1	> 80 µM (inactive)
Cc1cccc(/C=C/C(=O)c2ccc([N+](=O)[O-])o2)c1	> 80 µM (inactive)
CCc1cc(C(=O)c2ccc(C)cc2)c(NC(=O)CCl)s1	> 80 µM (inactive)
N=c1c(-c2nc3ccccc3[nH]2)cc(C(=O)c2ccco2)nn1-c1ccccc1	> 80 µM (inactive)
CC(C)N=c1scc(-c2ccco2)n1/N=C/c1ccc(O)c(O)c1	4.51 µM

SMILES	EC50
CC1CCC/C=C/C(=O)c2c(O)cc(O)cc2CC(=O)O1 (centres undefined)	> 80 µM (inactive)
CCn1c(O)c(C2=c3ccccc3=NC2=O)c2cc(Br)ccc21	> 80 µM (inactive)
Cc1ccccc1/C=C/C(=O)c1ccc([N+](=O)[O-])o1	> 80 µM (inactive)
COc1ccc(/C=C\c2nc(=O)c3ccccc3o2)cc1	> 80 µM (inactive)
O=[N+]([O-])c1ccc(C=Nc2ccc(Cl)c([N+](=O)[O-])c2)s1	> 80 µM (inactive)
CCOC(=O)C(=Cc1ccc(F)cc1)C(=O)OCC	> 80 µM (inactive)
Cc1sc(NC(=O)c2cc(-c3ccc(Cl)cc3)nc3ccccc23)c(C(N)=O)c1C	15.2 µM
Brc1ccc(-c2ccc(/C=N/Nc3nncc(-c4ccccc4)n3)o2)cc1	inactive
CCOC(=O)/C=c1\s/c(=C\c2ccc3cc(OC)ccc3c2)c(=O)n1CC(=O)NCC1CCCO1 (centres undefined)	17.4 µM
CCOC(=O)c1cnc(Nc2nc3ccccc3o2)nc1CSC(=S)N(CC)CC	4.59 µM
Fc1ccc(NC(=S)Nc2nccs2)cc1	> 80 µM (inactive)
CCCN(CCC)C(=O)c1cc([N+](=O)[O-])cc2c1-c1ccc([N+](=O)[O-])cc1C2=C(C#N)C#N	> 80 µM (inactive)
CCCCCCCCCCn1c2c(c(=N)c3c1CCC3)CCC2	19.8 µM
O=C(Nc1ccc(S(=O)(=O)N2CCCC2)cc1)c1ccc([N+](=O)[O-])o1	> 80 µM (inactive)
O=C(/C=C\c1ccccc1OC(=O)c1ccccc1F)c1cc2ccccc2o1	13.7 µM
Cc1ccn2cc(-c3ccc(O)c(O)c3)nc2c1	> 80 µM (inactive)
O=C(CCl)Nc1cccc(CP(=O)(c2ccccc2)c2ccccc2)c1	> 80 µM (inactive)
COc1ccc(/C=C/c2nc3cc(-c4ccccc4)ccc3o2)cc1O	> 80 µM (inactive)
C/C(=N\NC(=O)c1cccc2ccccc12)c1ccccn1	> 80 µM (inactive)
COC(=O)c1c(NC(=O)c2ccc([N+](=O)[O-])o2)sc2c1CCN(C(C)C)C2	> 80 µM (inactive)
CCc1ccc(-n2c(SCC(=O)c3ccc4c(c3)NC(=O)CO4)nc3ccccc3c2=O)cc1	10.5 µM
O=C1/C(=C/c2ccccc2[N+](=O)[O-])COc2ccccc21	> 80 µM (inactive)
COc1ccc(N=c2oc3ccc(OC)cc3cc2-c2nc3ccccc3[nH]2)cc1	12.5 µM
CSc1nnc(NC(=O)c2nc(S(=O)(=O)Cc3ccccc3)ncc2Cl)s1	> 80 µM (inactive)
C/C(CCC12CC3CC(CC(C3)C1)C2)=N\NC(N)=S	> 80 µM (inactive)

SMILES	EC50
O=C1NC(=O)N(Cc2ccccc2)C(=O)/C1=C\C=C\c1ccco1	> 80 µM (inactive)
Cc1ccc2c(C(=O)CCl)c(C)[nH]c2c1	> 80 µM (inactive)
Oc1c(C(c2ccccn2)N2CCC(Cc3ccccc3)CC2)cc(Cl)c2cccnc12 (centres undefined)	> 80 µM (inactive)
O=C(c1cccs1)N(C(=O)c1cccs1)c1ccc(Br)cn1	17.9 µM
CCCCCOc1ccc(N2C(=O)CC(N(O)c3ccccc3)C2=O)cc1 (centres undefined)	> 80 µM (inactive)
Cc1cccnc1Nc1nc(-c2ccccn2)cs1	> 80 µM (inactive)
COc1cc(NS(=O)(=O)c2ccc3ccccc3c2)c2ncccc2c1	15.5 µM
O=C(N/N=C/c1ccccn1)c1cc(-c2ccc(Br)cc2)nc2ccccc12	> 80 µM (inactive)
CCOC(=O)C(=Cc1ccc(-n2cncn2)cc1)C(=O)OCC	> 80 µM (inactive)
OCCNc1nc(Nc2ccc(Br)cc2)nc2ccccc12	5.17 µM
COc1cccc(/C=N/Nc2nc(Nc3ccccc3)nc(-n3nc(C)cc3C)n2)c1O	5.09 µM
C/C(=N\Nc1ncnc2sc(C)c(C)c12)c1ccccn1	inactive
Oc1ccc(/C=N/Nc2ccnc3cc(Cl)ccc23)cc1O	8.71 µM
Cc1cc(C)c(C(CC(=O)c2cccs2)C(C#N)C#N)c(C)c1 (centres undefined)	> 80 µM (inactive)
COc1ccc(CNC[C@@H](CCCCN(C)Cc2ccc(OC)cc2)N2C[C@H](c3ccccc3)N(CCc3ccc(Cl)c(Cl)c3)C(=O)C2=O)cc1	> 80 µM (inactive)
COc1ccc(/C=N/Nc2cc(C)nc(-n3nc(C)cc3C)n2)c(OC)c1	> 80 µM (inactive)
COc1ccc(C(=O)Nc2ccccc2C(=O)N/N=C/c2ccccn2)cc1OC	> 80 µM (inactive)
O=C(NCCc1ccccc1)c1coc(=O)c(Br)c1	> 80 µM (inactive)
COc1cccc(N=Cc2c(O)c3ccccc3oc2=O)c1	> 80 µM (inactive)
COc1ccc(/C=N/Nc2cc(C)nc(-n3nc(C)cc3C)n2)cc1	> 80 µM (inactive)
O=C1Nc2ccc(Br)cc2/C1=N/N=C/C1=C(N2CCOCC2)C(=C\c2ccccc2)/CC1	> 80 µM (inactive)
CC(C)(C)C1=CC(=O)C(=O)C(C(C)(C)C)=C1	> 80 µM (inactive)
O=C1NC(=S)NC(=O)C1=Cc1ccc(Br)s1	> 80 µM (inactive)
COc1ccc2[nH]cc(C(=O)CCl)c2c1	> 80 µM (inactive)
Cc1[nH]c2c(C)cccc2c1CCNC(=O)c1ccc2c(c1[N+](=O)[O-])C(=O)c1ccccc1C2=O	> 80 µM (inactive)

SMILES	EC50
COc1ccc(/C=C/C(=O)c2ccc([N+](=O)[O-])o2)cc1	> 80 µM (inactive)
O=C(Nc1cccc(S(=O)(=O)N2CCCCC2)c1)c1ccc([N+](=O)[O-])o1	> 80 µM (inactive)
CC(=O)Nc1ccc(N=Cc2c(O)c(C(=O)Nc3ccccc3)cc3ccccc23)cc1	inactive
Cc1cc(C)cc(N2C(=O)NC(=O)/C(=C\c3cccn3-c3ccccc3)C2=O)c1	> 80 µM (inactive)
O=C(C=C=Nc1ccccc1)C(=O)N=C=Cc1ccccc1	> 80 µM (inactive)
Oc1cc(-c2cccnc2)cc2cccnc12	inactive
S=C1SCN(Cc2ccco2)CN1Cc1ccco1	> 80 µM (inactive)
O=C(/C(=C\c1ccccc1)c1nc2ccccc2[nH]1)c1ccc(Cl)cc1	> 80 µM (inactive)
O=C(CCl)c1ccc(Cc2ncc(C(F)(F)F)cc2Cl)s1	> 80 µM (inactive)
CCCCOc1ccc(N2C(=O)CC(N(O)c3ccccc3)C2=O)cc1 (centres undefined)	> 80 µM (inactive)
O=C(N/N=C/c1ccccn1)c1cc([N+](=O)[O-])cc([N+](=O)[O-])c1	> 80 µM (inactive)
COc1cc(/C=C/C(=O)c2ccc3c(c2)OCCO3)cc(Br)c1OCC(=O)N(C)C	> 80 µM (inactive)
CCOC(=O)c1cnc(-n2nc(C)cc2C)nc1NC1CCCCC1	> 80 µM (inactive)
CN1C(=O)NC(=O)/C(=C\C=C\c2ccccc2[N+](=O)[O-])C1=O	> 80 µM (inactive)
CCc1cccc2sc(N3CCN(C(=O)c4ccc([N+](=O)[O-])o4)CC3)nc12	> 80 µM (inactive)
COc1ccc2cc1Oc1ccc(cc1)CC1c3c(cc(OC)c4c3Oc3cc5c(cc3O4)CCNC5C2)CCN1C (centres undefined)	> 80 µM (inactive)
Oc1c(C(Nc2ccccn2)c2ccccn2)ccc2cccnc12 (centres undefined)	> 80 µM (inactive)
CC(C)c1cccc(-c2ccc3c(c2)S(=O)(=O)c2cccc(C(=O)NCc4ccccc4Cl)c2C3=O)c1	11.2 µM
CCc1ccc(N2C(=O)NC(=O)/C(=C\C=C\c3ccco3)C2=O)cc1	> 80 µM (inactive)
Cc1c(C(=O)c2no[n+]([O-])c2C(=O)c2cnn(C)c2C)cnn1C	> 80 µM (inactive)
C/C(=C\c1ccc(N(C)C)cc1)[N+](=O)[O-]	> 80 µM (inactive)
Oc1c(C(c2ccccc2Cl)N2CCCC2)ccc2cccnc12 (centres undefined)	> 80 µM (inactive)
O=C(NC1CCCC1)C(c1ccc(F)cc1)N(Cc1ccc(F)cc1)C(=O)CCl (centres undefined)	> 80 µM (inactive)
Cc1cccc(Nc2nc(-c3ccccn3)cs2)n1	> 80 µM (inactive)
